Patent publication US10647680B2, “Urea compound, preparation method therefor and medical use thereof” (Ancureall Pharmaceutical (Shanghai) Co., Ltd., priority 2016, dated 2020)

Assays:
[1] = test system: MV4-11 (FLT3 ITD+/+ mutant type); test: In vitro growth inhibition (GI50), MV4-11; type: cell-based, human; conditions: Homo sapiens, MV4-11; Cell lines of leukemia; read-out: GI 50 MV4-11 FLT3 (ITD +/+)
[2] = test system: MOLM-13 (FLT3 ITD+/− mutant type); test: In vitro growth inhibition (GI50), MOLM-13; type: cell-based, human; conditions: Homo sapiens, MOLM-13; Cell lines of leukemia; read-out: GI 50 MOLM-13 FLT3 (ITD+/−)
RS4; 11 (FLT3 wild type) = test: In vitro growth inhibition (GI50), RS4; 11; type: cell-based, human; conditions: Homo sapiens, RS4-11; Cell lines of leukemia; read-out: GI 50 RS4: 11 FLT3 (WT)
[3] = test system: K562 (FLT3 negative expression, positive expression of BCR-ABL fusion protein); test: In vitro growth inhibition (GI50), K562; type: cell-based; conditions: Homo sapiens, Cell lines of leukemia, read-out: GI 50 K562 BCR-ABL
[4] = test system: RAMOS (positive expression of Brutons tyrosine protein kinase); test: In vitro growth inhibition (GI50), RAMOS; type: cell-based; conditions: Homo sapiens, Cell lines of leukemia, read-out: GI 50 Ramos BTK
U937 (FLT3 wild-type) = test: In vitro growth inhibition (GI50), U937; type: cell-based; conditions: Homo sapiens, U-937; Cell lines of leukemia; read-out: GI 50 U937 FLT 3(WT)
[5] = test system: Kasumi-1 (c-Kit N822K mutant type); test: In vitro growth inhibition (GI50), Kasumi-1; type: cell-based; conditions: Homo sapiens, Cell lines of leukemia, read-out: GI 50 Kasumi-1 Kit (N822K)
Method in brief: (§1)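 After 3–5 days of treatment (top concentration 5,000 nM, serially diluted 2- or 10-fold to 0.01 nM, solvent ≤1%), viability was read by CCK8 at OD450. Growth rate was normalised to the time-zero and solvent-control wells, and GI50 was derived from the curve. Cultures in RPMI1640 + 10% FBS.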

[6] = test system: KG-1 (expressing FGFR1OP2-FGFR1 fusion protein); test: In vitro growth inhibition (GI50), KG-1; type: cell-based; conditions: Homo sapiens; Cell lines of leukemia; read-out: GI 50 KG-1 FGFR1OP 2-FGFR1
HL-60 (FLT3 wild type) = test: In vitro growth inhibition (GI50), HL-60; type: cell-based; conditions: Homo sapiens, Cell lines of leukemia, read-out: GI 50 HL60 FLT3 (WT)
Method in brief: as §1

[7] = test system: OCI-AML3 (NPMc+ mutant type); test: In vitro growth inhibition (GI50), OCI-AML3; type: cell-based; conditions: Homo sapiens, OCI-AML-3; Cell lines of leukemia; read-out: GI 50 OCI- AML3 NPMc+

SMILES	GI50 [1]	GI50 [2]	GI50 (RS4; 11 (FLT3 wild type))	GI50 [3]	GI50 [4]	GI50 (U937 (FLT3 wild-type))	GI50 [5]	GI50 [6]	GI50 (HL-60 (FLT3 wild type))	GI50 [7]
CCOC(=O)c1ccc(-n2nc(C(C)(C)C)cc2NC(=O)Nc2ccc(-n3cnc4ccccc43)cc2)cc1 [Compound 111, ethyl 4-{5-[3-(4-benzimidazol-1-yl-phenyl)-carbamido]-3-tert-butyl-pyrazol-1-yl}-benzoate]	1 to 10 nM	1 to 10 nM	100 to 1000 nM	100 to 1000 nM	> 1000 nM	> 1000 nM	> 1000 nM	> 1000 nM	> 1000 nM	> 1000 nM
Nc1cc(C2CC2)nn1C(=O)Nc1ccc(-n2cnc3ccccc32)cc1 [Compound 114, 5-amino-3-cyclopropylpyrazol-1-formic acid (4-benzimidazol-1-yl-phenyl)-amide]	100 to 1000 nM	100 to 1000 nM	> 1000 nM	> 1000 nM	> 1000 nM	> 1000 nM	> 1000 nM	> 1000 nM	> 1000 nM	> 1000 nM
Nc1cc(C(F)(F)F)nn1C(=O)Nc1ccc(-n2cnc3ccccc32)cc1 [Compound 115, 5-amino-3-trifluoromethylpyrazol-1-carboxylic acid (4-benzimidazol-1-yl-phenyl)-amide]	100 to 1000 nM	100 to 1000 nM	> 1000 nM	> 1000 nM	> 1000 nM	> 1000 nM	> 1000 nM	> 1000 nM	> 1000 nM	100 to 1000 nM
CN1CCN(CCCOc2ccc3c(c2)ncn3-c2ccc(NC(=O)n3nc(C(C)(C)C)cc3N)cc2)CC1 [Compound 118, 5-amino-3-tert-butyl-pyrazol-1-carboxylic acid (4-{5-[3-(4-methyl-piperazin-1-yl)-propoxyl]-benzimidazol-1-yl}-phenyl)-amide]	1 to 10 nM	1 to 10 nM	> 1000 nM	> 1000 nM	> 1000 nM	> 1000 nM	> 1000 nM	> 1000 nM	> 1000 nM	> 1000 nM
CC(C)(C)c1cc(N)n(C(=O)Nc2ccc(-n3cnc4cc(OCCN5CCOCC5)ccc43)cc2)n1 [Compound 119, 5-amino-3-tert-butyl-pyrazol-1-carboxylic acid {4-[5-(2-morpholin-4-yl-ethoxyl)-benzimidazol-1-yl]-phenyl}-amide]	1 to 10 nM	1 to 10 nM	> 1000 nM	> 1000 nM	> 1000 nM	> 1000 nM	> 1000 nM	> 1000 nM	> 1000 nM	> 1000 nM
COCCOc1ccc2c(c1)ncn2-c1ccc(NC(=O)n2nc(C(C)(C)C)cc2N)cc1 [Compound 120, 5-amino-3-tert-butyl-pyrazol-1-carboxylic acid {4-[5-(2-methoxyl-ethoxyl)-benzimidazol-1-yl]-phenyl}-amide]	1 to 10 nM	1 to 10 nM	> 1000 nM	> 1000 nM	> 1000 nM	> 1000 nM	> 1000 nM	100 to 1000 nM	> 1000 nM	100 to 1000 nM
CC(C)(C)c1cc(N)n(C(=O)Nc2ccc(-n3cnc4cc(OCC5CCCO5)ccc43)cc2)n1 (stereo not shown) [Compound 123, 5-amino-3-tert-butyl-pyrazol-1-carboxylic acid {4-[5-(tetrahydro-furan-2-ylmethoxy)-benzimidazol-1-yl]-phenyl}-amide]	1 to 10 nM	1 to 10 nM	> 1000 nM	> 1000 nM	> 1000 nM	> 1000 nM	> 1000 nM	> 1000 nM	> 1000 nM	> 1000 nM
CCOC(=O)COc1ccc2c(c1)ncn2-c1ccc(NC(=O)n2nc(C(C)(C)C)cc2N)cc1 [Compound 124, ethyl (1-{4-[(5-amino-3-tert-butyl-pyrazol-1-carbonyl)-amino]-phenyl}-1H-benzimidazol-5-yloxy)-acetate]	> 1000 nM	> 1000 nM	> 1000 nM	> 1000 nM	> 1000 nM	> 1000 nM	> 1000 nM	> 1000 nM	> 1000 nM	100 to 1000 nM
CC(C)(C)c1cc(N)n(C(=O)Nc2ccc(-n3cnc4cc(F)ccc43)cc2)n1 [Compound 125, 5-amino-3-tert-butyl-pyrazol-1-carboxylic acid [4-(5-fluoro-benzimidazol-1-yl)-phenyl]-amide]	10 to 100 nM	10 to 100 nM	> 1000 nM	> 1000 nM	> 1000 nM	> 1000 nM	> 1000 nM	> 1000 nM	> 1000 nM	> 1000 nM
CC(C)(C)c1cc(N)n(C(=O)Nc2ccc(-n3cnc4cc(C(F)(F)F)ccc43)cc2)n1 [Compound 126, 5-amino-3-tert-butyl-pyrazol-1-carboxylic acid [4-(5-trifluoromethyl-benzimidazol-1-yl)-phenyl]-amide]	10 to 100 nM	10 to 100 nM	> 1000 nM	> 1000 nM	> 1000 nM	> 1000 nM	> 1000 nM	> 1000 nM	> 1000 nM	> 1000 nM
CNC(=O)c1cc(Oc2ccc3c(c2)ncn3-c2ccc(NC(=O)n3nc(C(C)(C)C)cc3N)cc2)ccn1 [Compound 127, 4-(1-{4-[(5-amino-3-tert-butyl-pyrazol-1-carbonyl)-amino]-phenyl}-1H-benzimidazol-5-yloxy)-pyridin-2-carboxylic acid methylamide]	100 to 1000 nM	100 to 1000 nM	> 1000 nM	> 1000 nM	> 1000 nM	> 1000 nM	> 1000 nM	> 1000 nM	> 1000 nM	> 1000 nM
COCCOc1ccc2ncn(-c3ccc(NC(=O)n4nc(C(C)(C)C)cc4N)cc3)c2c1 [Compound 128, 5-amino-3-tert-butyl-pyrazol-1-carboxylic acid {4-[6-(2-methoxyl-ethoxyl)-benzimidazol-1-yl]-phenyl}-amide]	10 to 100 nM	10 to 100 nM	> 1000 nM	> 1000 nM	> 1000 nM	> 1000 nM	> 1000 nM	> 1000 nM	> 1000 nM	> 1000 nM
CC(C)(C)c1ccn(C(=O)Nc2ccc(-n3cnc4ccccc43)cc2)n1 [Compound 130, 3-tert-butyl-pyrazol-1-carboxylic acid (4-benzimidazol-1-yl-phenyl)-amide]	100 to 1000 nM	100 to 1000 nM	> 1000 nM	> 1000 nM	> 1000 nM	> 1000 nM	> 1000 nM	> 1000 nM	> 1000 nM	> 1000 nM
Cc1noc(NC(=O)Nc2ccc(-n3cnc4ccccc43)cc2)c1C [Compound 131, 1-(4-benzimidazol-1-yl-phenyl)-3-(3,4-dimethyl-isoxazol-5-yl)-urea]	100 to 1000 nM	100 to 1000 nM	> 1000 nM	> 1000 nM	> 1000 nM	> 1000 nM	> 1000 nM	> 1000 nM	> 1000 nM	> 1000 nM
CC(C)c1cc(NC(=O)Nc2ccc(-n3cnc4ccccc43)cc2)on1 [Compound 132, 1-(4-benzimidazol-1-yl-phenyl)-3-(3-isopropyl-isoxazol-5-yl)-urea]	10 to 100 nM	10 to 100 nM	> 1000 nM	> 1000 nM	> 1000 nM	> 1000 nM	> 1000 nM	> 1000 nM	> 1000 nM	100 to 1000 nM
CC(C)(C)c1cc(NC(=O)Nc2ccc(-n3cnc4ccccc43)cc2)on1 [Compound 133, 1-(4-benzimidazol-1-yl-phenyl)-3-(3-tert-butyl-isoxazol-5-yl)-urea]	1 to 10 nM	1 to 10 nM	> 1000 nM	> 1000 nM	> 1000 nM	> 1000 nM	> 1000 nM	> 1000 nM	> 1000 nM	> 1000 nM
